Test results reported in patent US20240139151A1, “COMPOSITION INCLUDING DECURSINOL AS ACTIVE INGREDIENT FOR PREVENTING OR TREATING SMOOTH MUSCLE CELL PROLIFERATIVE DISEASES” (KYUNGSUNG UNIVERSITY INDUSTRY COOPERATION FOUNDATION, priority 2021, published 2024).
Entries after “also recorded” stand apart in the source; their conditions may differ.

What was measured:
[1] = system: vascular smooth cell line A10; assay: Inhibition of high glucose-induced proliferation of A10 cells (EC100); type: cell-based; conditions: 30 mM D-glucose, 0-500 μM
Procedure: (§1) The vascular smooth cell line A10 was loaded at a density of 1×10^3 cells/ml into 96-well plates and after 16 hours, the medium was replaced with a medium having a concentration of 5.5 mM or 30 mM D-glucose. Subsequently, decursin, decursinol angelate and decursinol were each applied at concentrations of 0, 20, 50, 100, 200, and 500 μM to the cells. IC50, a concentration at which the growth of the cells is inhibited by 50%, and EC100, a concentration which inhibits the growth of cells in a high sugar level environment to a normal cell population, were measured, and therapeutic indices were calculated by dividing IC50 by EC100. […] Then, effects of decursin and decursinol angelate to inhibit the proliferation of A10 cells in high glucose were expressed as EC100. EC100 refers to the concentration at which high glucose-induced proliferation of A10 cells is inhibited to normal glucose levels by the drug.

[2] = Cytotoxicity (IC50) on A10 cells; conditions: rat, A10 vascular smooth muscle cells, IC50, concentration at which the growth of the cells is inhibited by 50% (cytotoxicity), 0-500 μM, cytotoxicity under normal glucose conditions
Procedure: as §1

[3] = in vitro; conditions: rat, IC50, concentration at which the growth of the cells is inhibited by 50% (cytotoxicity)
Procedure: as §1

[4] = system: phospho-protein kinase C (p-PKC); assay: Western blotting of phospho-PKC with a pan-phospho-PKC antibody in A10 cells; type: cell-based; conditions: 30 mM D-glucose, 10 and 25 μM solubilized decursinol, 24 hours
Procedure: Examination was made to see whether the inhibitory effect of decursinol on high sugar-induced proliferation of A10 cells was associated with PKC. […] Then, each well was treated with 10 and 25 μM of solubilized decursinol and incubated for 24 hours. Western blotting was carried out using a pan-phospho-PKC antibody and the results are depicted in FIG. 5.

[5] = Blood pressure safety test in rats after two weeks of oral administration; type: in vivo; conditions: measured the day after final administration
Description: The present inventors have been studying Angelica gigas Nakai for many years while observing the effect of Angelica gigas Nakai extract on blood pressure. In general, Angelica gigas Nakai is a traditional herb that has been used for food and medicine for a long time because of its excellent hematopoietic, anticancer, antioxidant, and anti-inflammatory actions. However, direct use of the Angelica gigas extract has the problem of inducing high blood pressure according to the preparation thereof. In this Example, the Angelica extracts obtained in Examples 1-1 and 1-2 and 99.9% pure decursinol of the present disclosure were administered to rats and assayed for safety for blood pressure.
Using a blood pressure analyzer (3R229 3 channel rat system, Life Science), rats were measured for blood pressure while being acclimated to blood measurement operation. When the blood pressure analyzer is being operated, laboratory rats are startled by the sound of air pressure and rise in blood pressure. In order to eliminate this effect, after adaptation by repeatedly measuring 5 times a day, the experiment was performed when the blood pressure was kept stable, and the blood pressure was regularly measured every day even during the experiment to adapt the rats to the analyzer. When measuring blood pressure, the head was covered with a handkerchief to block light for stabilization. Fifteen experimental rats were divided into 5 groups of 3 rats for the next administration experiment and measured for blood pressure. A control (physiological saline), the Angelica extracts, and decursinol were each orally administered for two weeks, and the blood pressures measured the next day after the final administration are given in Table 1.

[6] = system: vascular smooth cell line A10; conditions: rat
Procedure: as §1

[7] = system: vascular smooth muscle cell line A10; assay: Cytotoxicity of decursinol, live and dead cell count; type: cell-based; conditions: live and dead cells counted
Description: In order to examine the cytotoxicity of decursinol, both live and dead cells were counted. After treatment with decursinol, 98% or more of live cells were observed alive.

[8] = system: vascular smooth muscle cell line A10; assay: Effect of decursinol on high sugar-induced proliferation of A10 cells (cell count); type: cell-based
Procedure: The effect of decursinol on the high sugar-induced proliferation of A10 cells was investigated. […] Then, each well was treated with 25 μM of solubilized decursinol, and the cells were counted after 1, 2, and 3 days. The results are depicted in FIG. 4.

C/C=C(/C)C(=O)O[C@H]1Cc2cc3ccc(=O)oc3cc2OC1(C)C [Decursinol angelate, decursinol angelate]
EC100, concentration at which high glucose-induced proliferation of A10 cells is inhibited to normal glucose levels [1]: 4.4 µM
IC50 [2]: 124 µM

CC(C)=CC(=O)O[C@H]1Cc2cc3ccc(=O)oc3cc2OC1(C)C [Decursin, decursin]
EC100, concentration at which high glucose-induced proliferation of A10 cells is inhibited to normal glucose levels [1]: 7.2 µM
IC50 [3]: 82.7 µM

CC1(C)Oc2cc3oc(=O)ccc3cc2C[C@@H]1O [Decursinol, decursinol]
EC100, concentration at which high glucose-induced proliferation of A10 cells is inhibited to normal glucose levels [1]: 10.1 µM
Expression level of phospho-PKC in high sugar [4]: significantly decreased the increased expression level of phospho-PKC in high sugar in a dose-dependent manner
Diastolic blood pressure ([5]; 0.5 mg/kg): 91 mmHg
Systolic blood pressure ([5]; 0.5 mg/kg): 110 mmHg
Diastolic blood pressure ([5]; 1.0 mg/kg): 92 mmHg
Systolic blood pressure ([5]; 1.0 mg/kg): 110 mmHg
Diastolic blood pressure ([5]; 2.0 mg/kg): 92 mmHg
Systolic blood pressure ([5]; 2.0 mg/kg): 117 mmHg
Diastolic blood pressure ([5]; 5.0 mg/kg): 90 mmHg
Systolic blood pressure ([5]; 5.0 mg/kg): 115 mmHg
IC50 [3]: ≥ 500 µM
IC50 [6]: > 500 µM
Live cells after treatment with decursinol [7]: ≥ 98%
Effect on proliferation of A10 cells at normal sugar concentration ([8]; 5.5 mM D-glucose, 25 μM solubilized decursinol, days 1-3): did not significantly inhibit; also recorded: not affected
Effect on proliferation of A10 cells in high glucose ([8]; 30 mM D-glucose): significantly inhibited; also recorded: inhibited cell proliferation in a dose-dependent manner
Inhibition of proliferation of A10 cells in high glucose ([8]; 30 mM D-glucose, 25 μM solubilized decursinol, day 3): about 20%
